# In patent publication US7838490B2, “Methods and compositions for inhibition of vascular permeability” (University of Virginia Patent Foundation, priority 2005, dated 2010):
# Columns and labels:
# BAECs = experiment: In vitro permeability: HRP leakage across BAEC monolayer on 3 μm filters; format: cell-based; conditions: bovine endothelial cells; peptide 20 μg/ml
# Description: C. […] Cells were left untreated or stimulated for […] with 25 ng/ml VEGF, 50 ng/ml bFGF, or 10 μM histamine. Leakage of horseradish peroxidase (HRP) across the filter was assayed as described in Methods.
# A. BAECs on filters with 3.0 μm pores were pretreated with 20 μg/ml PIX blocking or control peptides for 1 hour, then stimulated with VEGF for 30 minutes. HRP movement across the monolayer was assayed as described in Methods.
# (§1) BAECs on FN-coated 3 μm filters at near-confluence were transfected with 0.5 μg cDNA using Effectene as described above. At 48 h, cells were pre-treated for 60 min with PAK peptides as indicated. For some experiments, cells were nucleofected, then plated on filters and grown to confluence for 48 hr. Filters were then placed in outer wells with 500 μl fresh DMEM without phenol red or serum. To each filter well was added 200 μl medium plus 50 μl of 1.5 μg/ml horseradish peroxidase (HRP) with or without cytokines as described. After 30 min, filters were removed and fixed, and the medium in the lower wells assayed for HRP as described (Stockton et al., 2004). Values were normalized to control, untreated wells.
# DOCK180 = target: T1, DOCK180 (Homo sapiens, UniProt Q14185); experiment: Pull-down from cell lysates with biotin-tagged peptides on streptavidin beads; format: binding; conditions: higher amounts of cell lysates; not shown
# T1 construct: endogenous in cells
# actin cytoskeleton = conditions: BAECs; 20 μg/ml peptide; bFGF 60 min
# Description: E. Cells incubated with peptides as in C and stimulated with bFGF for 60 min, then stained for F-actin.
# Cells were fixed for 60 minutes in 3.5% formaldehyde, washed, and permeabilized for 10 minutes in 0.2% TX100. Coverslips were blocked with PBS containing 10% goat serum for 60 minutes, then probed 8 hours at 4° C. with 200 μl containing the following antibodies: phospho-ERK at 1:500; phospho-MEK at 1:500; phospho-PAK at 1:500; phospho-MLC at 1:500 (all from BioSource International); βPIX at 1:200 or GIT1 at 1:200 (Santa Cruz Biotechnology). Coverslips were washed and probed overnight at 4° C. with 200 μl anti-mouse IgG-Alexa 568 or anti-rabbit IgG-Alexa 488 (Molecular Probes) at 1:1000. Coverslips were washed and mounted using FluoroMount (Invitrogen).
# HUVECs = experiment: In vitro permeability: HRP leakage across HUVEC monolayer; format: cell-based, human; conditions: peptide 20 μg/ml, not shown
# Description: B. HUVECs were transfected with siRNA oligonucleotides specific to GIT1 or with control, scrambled siRNA. Total cell lysates at 72 hours were analyzed for GIT1 expression by Western blotting (top). Cells on filters were analyzed for permeability to HRP after treatment with VEGF (50 ng/ml), histamine (10 μM) or thrombin (0.2 U/ml).
# The βPIX and GIT1 constructs were obtained from Dr. A. F. Horwitz. The ΔGBD βPIX (mutated for GIT1 binding) and ΔSHD mutant of GIT1 (mutated for PIX and MEK binding) were as described (Zhang et al., 2003). Dominant negative MEK1 was as described (Renshaw et al., 1997). GIT1 Smartpool siRNA oligos against human sequence were obtained from Dharmacon and the experiments were carried out in HUVECs. The Smartpool mixture contained 4 different siRNA oligos. The four different sense sequences are:
# as §1, with “After 30 min, filters were removed and fixed, and the medium in the lower wells assayed for HRP as described (Stockton et al., 2004). Values were normalized to control, untreated wells.” left out
# cortactin = target: T2, cortactin (Homo sapiens, UniProt Q14247); experiment: Pull-down from cell lysates with biotin-tagged peptides on streptavidin beads; format: binding; conditions: Western blotting
# T2 construct: endogenous in cells
# T2 sequence (Q14247 1-550): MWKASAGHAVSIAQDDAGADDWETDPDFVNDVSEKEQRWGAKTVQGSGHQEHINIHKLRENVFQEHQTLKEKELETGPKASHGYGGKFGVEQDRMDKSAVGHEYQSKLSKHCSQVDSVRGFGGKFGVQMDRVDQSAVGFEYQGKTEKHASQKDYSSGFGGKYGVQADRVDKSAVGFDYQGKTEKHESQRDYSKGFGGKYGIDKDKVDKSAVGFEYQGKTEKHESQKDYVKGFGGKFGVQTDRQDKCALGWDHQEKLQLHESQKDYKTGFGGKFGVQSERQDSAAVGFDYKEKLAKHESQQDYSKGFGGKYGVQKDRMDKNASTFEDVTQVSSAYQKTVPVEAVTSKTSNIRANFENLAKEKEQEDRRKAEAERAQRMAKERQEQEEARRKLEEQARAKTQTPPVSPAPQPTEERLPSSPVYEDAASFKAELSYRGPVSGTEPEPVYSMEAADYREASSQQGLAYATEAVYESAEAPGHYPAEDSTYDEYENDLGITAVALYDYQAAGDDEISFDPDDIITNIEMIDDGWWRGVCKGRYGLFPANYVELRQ
# Description: (§2) B. Cell lysates were incubated with peptides immobilized on streptavidin beads and the whole cell lysates (WCL) or bound proteins analyzed by Western blotting.
# (§3) Cells were stimulated, washed with cold PBS, extracted with 0.5 ml cold immunoprecipitation (IP) buffer (20 mM Tris pH 7.6, 0.5% NP40, 250 mM NaCl, 5 mM EDTA, 3 mM EGTA; plus Sigma protease and phosphatase inhibitor cocktails) for 10 min. They were passed through an 18 gauge needle 3× and centrifuged for 10 min at 12,000×g in a microfuge. […] Anti-GIT1 and anti-βPIX were from Santa Cruz Biotechnology. […] For binding to peptides, 25 μg of biotin-tagged peptides were incubated with 25 μl of streptavidin beads for 30 min, then rinsed and incubated with 0.5 cell lysates for 30 min. Bound proteins were detected by Western blotting with the indicated antibodies. For βPIX, cells were transfected with HA-PIX and blots probed using anti-HA. Proteins were electrophoretically transferred to PVDF membranes, blocked with 5% milk in Tris-buffered saline (TBS) and probed overnight with primary antibodies in the same buffer. Membranes were washed 4×, probed with secondary antibodies for 2 h, and then visualized using chemiluminescence (ECL, Amersham).
# βPIX = target: T3, βPIX (Homo sapiens, UniProt Q14155); experiment: as above; format: binding; conditions: Western blotting
# T3 construct: expressed in transfected cells
# T3 sequence (Q14155 1-646 isoform Q14155-1): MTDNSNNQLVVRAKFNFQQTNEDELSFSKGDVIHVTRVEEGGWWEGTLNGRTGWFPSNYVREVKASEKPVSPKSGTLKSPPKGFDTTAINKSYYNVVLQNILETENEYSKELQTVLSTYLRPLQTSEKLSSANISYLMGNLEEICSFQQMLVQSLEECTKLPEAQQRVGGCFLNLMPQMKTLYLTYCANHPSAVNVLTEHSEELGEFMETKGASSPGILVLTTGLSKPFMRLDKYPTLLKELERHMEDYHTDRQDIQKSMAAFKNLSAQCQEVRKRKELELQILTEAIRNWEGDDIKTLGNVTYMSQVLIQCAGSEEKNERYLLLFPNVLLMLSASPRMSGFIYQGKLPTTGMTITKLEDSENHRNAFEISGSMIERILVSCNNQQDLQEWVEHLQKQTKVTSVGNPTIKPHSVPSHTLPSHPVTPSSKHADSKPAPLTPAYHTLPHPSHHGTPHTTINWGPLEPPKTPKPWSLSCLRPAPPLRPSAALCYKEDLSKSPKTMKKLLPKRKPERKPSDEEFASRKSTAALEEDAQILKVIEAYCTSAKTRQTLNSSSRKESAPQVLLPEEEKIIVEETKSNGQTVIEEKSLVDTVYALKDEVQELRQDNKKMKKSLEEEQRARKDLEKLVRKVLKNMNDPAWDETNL
# Description: as §2, §3
# [1] = system: other SH3-containing proteins; conditions: cell lysates; Western blotting
# Description: as §2, §3
# CD2AP = target: T4, CD2AP (Homo sapiens, UniProt Q9Y5K6); experiment: Pull-down from cell lysates with biotin-tagged peptides on streptavidin beads; format: binding; conditions: higher amounts of cell lysates; not shown
# T4 construct: endogenous in cells
# [2] = system: interaction between PAK and PIX; conditions: BAECs, 20 μg/ml peptide 1 h, VEGF 30 min
# Description: BAECs were incubated with PIX blocking or control peptide at 20 μg/ml for 1 h, then stimulated with VEGF for 30 min. Cells were rinsed, lysed, and βPIX immunoprecipitated. The IP's were analyzed by Western blotting.
# Cells were stimulated, washed with cold PBS, extracted with 0.5 ml cold immunoprecipitation (IP) buffer (20 mM Tris pH 7.6, 0.5% NP40, 250 mM NaCl, 5 mM EDTA, 3 mM EGTA; plus Sigma protease and phosphatase inhibitor cocktails) for 10 min. They were passed through an 18 gauge needle 3× and centrifuged for 10 min at 12,000×g in a microfuge. Supernatants were precleared with 25 μl of Protein G-agarose beads and incubated with the indicated primary antibody for 2 hrs at 4°. […] 25 μl of protein A- or protein G-agarose beads were added and incubated for another 2 h while rotating at 4° C. Beads were sedimented and washed 3× with 0.5 ml IP buffer and separated by SDS-PAGE. […] Proteins were electrophoretically transferred to PVDF membranes, blocked with 5% milk in Tris-buffered saline (TBS) and probed overnight with primary antibodies in the same buffer. Membranes were washed 4×, probed with secondary antibodies for 2 h, and then visualized using chemiluminescence (ECL, Amersham).
# [3] = system: mice exposed to aerosolized LPS; experiment: LPS-induced pulmonary microvascular permeability (Evans blue dye extravasation)
# Description: B. Mice inhaled LPS with control or Nck blocking peptide as in A. At 6 hours, they were injected with Evans blue dye and leakage into the lung assayed at 1 h.
# B. Mice received intraperitoneal injections with the indicated amounts of the PIX blocking or control peptides. They were treated with aerosolized LPS for 6 h then leakage of Evans blue dye into the lung assayed as described in Methods.
# Wild type male mice (C57B1/6, 8 to 12 weeks of age, Jackson Labs, Bar Harbor, Me.) were exposed to aerosolized LPS (Salmonella enteritidis, Sigma Co., St. Louis, Mo.) for 30 min. […] Control animals inhaled saline. Some mice received intraperitoneal (ip) injection of the PAK inhibitory or control peptides 30 min prior to treatment. […] Permeability was analyzed at 6 h using the Evans blue dye extravasation technique (Green et al., 1988). Briefly, Evans blue (20 mg/kg; Sigma) was injected intravenously 30 minutes prior to euthanasia. Lungs were perfused through the spontaneously beating right ventricle to remove intravascular dye. Lungs were removed and Evans blue was extracted as described (Peng et al., 2004). The absorption of Evans blue was measured at 620 nm and corrected for the presence of heme pigments: A620 (corrected)=A620−(1.426×A740+0.030) (Wang le et al., 2002). Extravasated Evans blue was calculated against a standard curve (micrograms Evans blue dye per gram lung).
# Erk [4] = experiment: phospho-Erk staining of lung sections from LPS-treated mice; format: in vivo; conditions: 6 h, peptides 1 mg, UO126 0.5 ml of 70 μM
# Description: A. Mice were injected with Nck-blocking peptide (1 mg; comprising SEQ ID NO:7), control peptide (1 mg) or UO126 (0.5 ml of 70 μM), then treated with or without LPS as in FIG. 1. At 6 hours, the lungs were removed, sectioned, and stained for activated Erk using pT202/pY204 antibody. Small arrows indicate unidentified cells in control lungs that stain positively. Large arrows indicate conduit blood vessels.
# C. Lungs from mice pretreated with 1 mg/ml PIX blocking peptide and exposed to LPS as in FIG. 3A were stained for phospho-Erk. […] Arrow indicates a conduit vessel.
# Control animals inhaled saline.
# Mouse lungs were inflated with an intratracheal instillation of PFA 4% at a constant pressure (20 cm H2O) for 15 minutes. Next, lungs were removed and fixed in PFA 4% for 24 h and embedded in paraffin. Sections (5 μm) were cut for IHC and treated with antigen unmasking solution (Vector Laboratories). Sections were stained with monoclonal rabbit anti p-ERK (1:400 Cell Signaling) overnight and detected with Vectastain Elite Kit (Vector Laboratories). Visualization was done with DAB (Dako Corp) and couterstained with hematoxylin. Images were acquired using 20 or 40× objective on a microscope (model BX51; Olympus) equipped with a digital camera (model DP70 Olympus) using ImagePro software program.
# Erk [5] = experiment: Erk activation in BAECs (Western blotting, immunostaining); format: cell-based, bovine; conditions: 20 μg/ml peptide or 25 μM U0126 for 1 hour; for immunostaining for activated Erk: then 25 ng/ml VEGF 30 minutes; for activation of Erk by VEGF (Western blotting): then VEGF 30 min
# Description: After 1 hour, 25 ng/ml VEGF was added for 30 minutes. Cells were then fixed and stained for activated Erk.
# B. Cells as in A were extracted and analyzed for Erk phosphorylation by Western blotting.
# D. BAECs were incubated with peptides and stimulated with VEGF as in C, then lysed and analyzed for Erk activation by Western blotting.
# Coverslips were washed and mounted using FluoroMount (Invitrogen).
# T4 sequence (Q9Y5K6 whole entry, species assumed): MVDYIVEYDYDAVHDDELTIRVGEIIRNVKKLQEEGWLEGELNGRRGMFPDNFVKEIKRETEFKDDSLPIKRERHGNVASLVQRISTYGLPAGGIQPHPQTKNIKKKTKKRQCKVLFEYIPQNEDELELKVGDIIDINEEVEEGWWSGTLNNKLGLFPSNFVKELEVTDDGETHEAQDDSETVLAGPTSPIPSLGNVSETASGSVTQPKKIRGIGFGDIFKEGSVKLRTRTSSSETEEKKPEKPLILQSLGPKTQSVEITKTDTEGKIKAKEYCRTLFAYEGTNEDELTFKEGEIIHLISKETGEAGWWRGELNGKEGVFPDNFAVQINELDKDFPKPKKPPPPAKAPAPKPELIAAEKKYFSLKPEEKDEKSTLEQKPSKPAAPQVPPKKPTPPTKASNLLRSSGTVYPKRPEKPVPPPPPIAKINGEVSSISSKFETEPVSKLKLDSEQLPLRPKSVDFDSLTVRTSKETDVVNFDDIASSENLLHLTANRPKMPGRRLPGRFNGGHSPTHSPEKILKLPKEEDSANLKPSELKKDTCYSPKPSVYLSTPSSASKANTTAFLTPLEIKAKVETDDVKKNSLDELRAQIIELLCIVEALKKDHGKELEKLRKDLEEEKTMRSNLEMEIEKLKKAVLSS
compound,measurement,setting,value
YGRKKRRQRRRGPPPVIAPRPEHTKSVYTR-K+Biotin [PIX-binding peptide],block of the increase in permeability in vitro in response to VEGF,BAECs,approximately 80%
same,binding of DOCK180 to immobilized peptide,DOCK180,weak but nonspecific binding
same,increase in actin stress fibers in response to bFGF or VEGF,actin cytoskeleton,blocked
same,block of the increase in permeability in vitro in response to VEGF,HUVECs,approximately 80%
same,binding of cortactin to immobilized peptide,cortactin,weak but reproducible binding
same,binding of βPIX to immobilized peptide,βPIX,bound βPIX with high efficiency
same,binding of other SH3-containing proteins to immobilized peptide,[1],no binding
same,binding of CD2AP to immobilized peptide,CD2AP,"weak, specific binding"
same,amount of PIX in βPIX immunoprecipitates,[2],no effect
same,reduction of PAK in βPIX precipitates,[2]; peptide washed out before lysis,about 70%
YGRKKRRQRRRGKPPAPPMRNTSTM (listed as Homo sapiens) [Nck-blocking peptide],leakage of Evans blue dye into the lung after inhalation of LPS,"[3]; 1 mg peptide ip prior to aerosolized LPS, assayed at 6 h",strongly inhibited
same,Erk activation (phospho-Erk staining) in lung sections,Erk [4],largely prevented
same,immunostaining for activated Erk,Erk [5],decreased phosphoErk at cell-cell borders
same,activation of Erk by VEGF (Western blotting),Erk [5],blocked
"N#CC(=C(/N)Sc1ccccc1N)/C(C#N)=C(\N)Sc1ccccc1N [U0126, reference compound]",induction of vascular leak by LPS (Evans blue dye),"[3]; 0.5 ml of 70 μM U0126 ip, 6 h",significantly blocked
same,Erk activation (phospho-Erk staining) in lung sections,Erk [4],blocked Erk activation throughout the tissue
same,immunostaining for activated Erk,Erk [5],nearly eliminated
same,activation of Erk by VEGF (Western blotting),Erk [5],blocked
